pEC50: −log10 of the molar value.
How the values were obtained:
Assay type in all cases: cell-based
HBV [1] = assay: Anti-HBV activity, HepG2.117 inducible HBV producing cell line (Tet-off), intracellular HBV DNA by realtime PCR; conditions: Hepatitis B virus, 72 h, HepG2.117 cells, 3 days of treatment
[2] = Cytotoxicity in HepG2 cells, Resazurin assay; conditions: human, incubated 4 days, Resazurin viability
HBV [3] = assay: Anti-HBV activity, HepG2.2.15 stable transfected cell line, HBV DNA from secreted virions by realtime PCR; conditions: Hepatitis B virus, 144 h, HepG2.2.15 cells, 6 days of treatment

SMILES | pEC50 (HBV [1]) | CC50 at 4 days [2] [nM] | pEC50 (HBV [3])
Cc1cc(NC(=O)c2cccc(S(=O)(=O)NC(C)CC#N)c2)ccc1F (racemic) [Compound 10] | 6.72 | > 25000 | 6.66
Cc1cc(NC(=O)c2cccc(S(=O)(=O)N[C@H](C)CC#N)c2)ccc1F (racemic) [Compound 10a] | 6.85 | > 25000 | 7.00
Cc1cc(NC(=O)c2cccc(S(=O)(=O)NC(C)CCCC(C)(C)O)c2)ccc1F (racemic) [Compound 21] | 5.77 | > 25000 | 6.77
COC(=O)NCC(C)NS(=O)(=O)c1cccc(C(=O)Nc2ccc(F)c(C)c2)c1 (stereo not drawn) [Compound 1] | 6.43 | > 25000 | 6.89
COC(=O)NC[C@@H](C)NS(=O)(=O)c1cccc(C(=O)Nc2ccc(F)c(C)c2)c1 [Compound 1a] | 6.96 | > 25000 | 6.74
COC(=O)NC[C@H](C)NS(=O)(=O)c1cccc(C(=O)Nc2ccc(F)c(C)c2)c1 [Compound 1b] | 5.80 | > 25000 | 5.73
CNCC(C)NS(=O)(=O)c1cccc(C(=O)Nc2ccc(F)c(C)c2)c1 (stereo not drawn) [Compound 2] | 5.62 | > 25000 | 5.03
Cc1cc(NC(=O)c2cccc(S(=O)(=O)NC(C)CN(C)C)c2)ccc1F (stereo not drawn) [Compound 3] | 5.96 | > 25000 | 5.12
Cc1cc(NC(=O)c2cccc(S(=O)(=O)NC(C)CO)c2)ccc1F (stereo not drawn) [Compound 4, N-(4-fluoro-3-methyl-phenyl)-3-[(2-hydroxy-1-methyl-ethyl)sulfamoyl]benzamide] | 6.49 | > 25000 | 6.55
Cc1cc(NC(=O)c2cccc(S(=O)(=O)N[C@H](C)CO)c2)ccc1F [Compound 4a] | 6.59 | > 25000 | 6.68
Cc1cc(NC(=O)c2cccc(S(=O)(=O)N[C@@H](C)CO)c2)ccc1F [Compound 4b] | 6.03 | > 25000 | 6.40
COCC(C)NS(=O)(=O)c1cccc(C(=O)Nc2ccc(F)c(C)c2)c1 (stereo not drawn) [Compound 5] | 6.08 | > 25000 | 6.62
Cc1cc(NC(=O)c2cccc(S(=O)(=O)NC(C)CCC(=O)N(C)C)c2)ccc1F (stereo not drawn) [Compound 6] | 6.96 | > 25000 | 6.74
CNC(=O)CCC(C)NS(=O)(=O)c1cccc(C(=O)Nc2ccc(F)c(C)c2)c1 (stereo not drawn) [Compound 7] | 6.62 | > 25000 | 6.27
COC(=O)CCC(C)NS(=O)(=O)c1cccc(C(=O)Nc2ccc(F)c(C)c2)c1 (stereo not drawn) [Compound 8] | 5.55 | > 25000 | 5.85
CC(=O)NCC(C)NS(=O)(=O)c1cccc(C(=O)Nc2ccc(F)c(C)c2)c1 (stereo not drawn) [Compound 9] | 6.25 | > 25000 | 5.89
Cc1cc(NC(=O)c2cccc(S(=O)(=O)N[C@H](CO)C(C)C)c2)ccc1F [Compound 11] | 6.08 | > 25000 | 6.26
CCC[C@@H](CO)NS(=O)(=O)c1cccc(C(=O)Nc2ccc(F)c(C)c2)c1 [Compound 12] | 6.09 | > 25000 | 6.19
Cc1cc(NC(=O)c2cccc(S(=O)(=O)NC(C)CCO)c2)ccc1F (stereo not drawn) [Compound 13] | 6.15 | > 25000 | 6.68
Cc1cc(NC(=O)c2cccc(S(=O)(=O)NC(C)(C)CO)c2)ccc1F [Compound 14] | 6.28 | > 25000 | 6.42
Cc1cc(NC(=O)c2cccc(S(=O)(=O)NC(C)(C)CCO)c2)ccc1F [Compound 15] | 6.49 | > 25000 | 6.66
C#CC(C)(C)NS(=O)(=O)c1cccc(C(=O)Nc2ccc(F)c(C)c2)c1 [Compound 16] | 6.23 | > 25000 | 6.72
Cc1cc(NC(=O)c2cccc(S(=O)(=O)NCCCC(=O)N(C)C)c2)ccc1F [Compound 17] | 6.21 | > 25000 | 6.59
Cc1cc(NC(=O)c2cccc(S(=O)(=O)N[C@H](C)CNC(=O)OC(C)(C)C)c2)ccc1F [Compound 18] | 6.72 | > 25000 | 6.70

SMILES | pEC50 (HBV [1]) | CC50 at 4 days [2] [nM] | pEC50 (HBV [3])
Cc1cc(NC(=O)c2cccc(S(=O)(=O)N[C@@H](C)CNC(=O)OC(C)(C)C)c2)ccc1F [Compound 19] | 6.30 | > 25000 | 6.13
COC(=O)N(C)CC(C)NS(=O)(=O)c1cccc(C(=O)Nc2ccc(F)c(C)c2)c1 (stereo not drawn) [Compound 20] | 6.25 | > 25000 | 6.26
Cc1cc(NC(=O)c2cccc(S(=O)(=O)N[C@H](C)C(N)=O)c2)ccc1F [Compound 22] | 6.30 | > 25000 | 6.26
Cc1cc(NC(=O)c2cccc(S(=O)(=O)N[C@@H](C)C(N)=O)c2)ccc1F [Compound 23] | 5.84 | > 25000 | 5.96
COCCC(C)NS(=O)(=O)c1cccc(C(=O)Nc2ccc(F)c(C)c2)c1 (stereo not drawn) [Compound 24] | 5.86 | > 25000 | 6.68
Cc1cc(NC(=O)c2cccc(S(=O)(=O)NC(C)C(C)CO)c2)ccc1F (stereo not drawn) [Compound 25] | 6.24 | > 25000 | 6.60
CCC(C)(CO)NS(=O)(=O)c1cccc(C(=O)Nc2ccc(F)c(C)c2)c1 (stereo not drawn) [Compound 26] | 6.47 | > 25000 | 6.41
COCC(C)(CCO)NS(=O)(=O)c1cccc(C(=O)Nc2ccc(F)c(C)c2)c1 (stereo not drawn) [Compound 27] | 6.02 | > 25000 | 5.94
COC(C)(C)CC(C)NS(=O)(=O)c1cccc(C(=O)Nc2ccc(F)c(C)c2)c1 (stereo not drawn) [Compound 28] | 5.85 | > 25000 | 6.57
CC(=O)CC(C)NS(=O)(=O)c1cccc(C(=O)Nc2ccc(F)c(C)c2)c1 (stereo not drawn) [Compound 29] | 6.64 | > 25000 | 6.72
Cc1cc(NC(=O)c2cccc(S(=O)(=O)NC(C)C(C)(C)O)c2)ccc1F (stereo not drawn) [Compound 30] | 6.77 | > 25000 | 6.59
COCC(C)(CO)NS(=O)(=O)c1cccc(C(=O)Nc2ccc(F)c(C)c2)c1 (stereo not drawn) [Compound 31] | 6.33 | > 25000 | 6.32
Cc1cc(NC(=O)c2cccc(S(=O)(=O)NCCS(C)(=O)=O)c2)ccc1F [Compound 32] | 6.19 | > 25000 | 6.72
Cc1cc(NC(=O)c2cccc(S(=O)(=O)NC(C)C(C)O)c2)ccc1F (stereo not drawn) [Compound 33] | 6.59 | > 25000 | 6.49
COCC(C)(C)NS(=O)(=O)c1cccc(C(=O)Nc2ccc(F)c(C)c2)c1 [Compound 34] | 6.19 | > 25000 | 6.27
Cc1cc(NC(=O)c2cccc(S(=O)(=O)N[C@@H](C)C(=O)N(C)C)c2)ccc1F [Compound 35] | 5.44 | > 25000 | 5.57
Cc1cc(NC(=O)c2cccc(S(=O)(=O)NC(C)(C)CC(C)O)c2)ccc1F (stereo not drawn) [Compound 36] | 6.82 | > 25000 | 6.57
Cc1cc(NC(=O)c2cccc(S(=O)(=O)NCC(C)(C)C(=O)O)c2)ccc1F [Compound 37] | 5.52 | > 25000 | 5.57
Cc1cc(NC(=O)c2cc(S(=O)(=O)N[C@H](C)CO)ccc2C)ccc1F [Compound 38] | 6.74 | > 25000 | 6.80
Cc1cc(NC(=O)c2cccc(S(=O)(=O)NC(C)CC(=O)N(C)C)c2)ccc1F (stereo not drawn) [Compound 39] | 6.07 | > 25000 | 5.98
Cc1cc(NC(=O)c2cccc(S(=O)(=O)N[C@H](C)C(=O)N(C)C)c2)ccc1F [Compound 40] | 5.58 | > 25000 | 5.64
CNC(=O)[C@@H](C)NS(=O)(=O)c1cccc(C(=O)Nc2ccc(F)c(C)c2)c1 [Compound 41] | 5.87 | > 25000 | 5.65
Cc1cc(NC(=O)c2cccc(S(=O)(=O)N[C@H](C)CS(C)(=O)=O)c2)ccc1F [Compound 42] | 6.82 | > 25000 | 6.60

Source: patent US10941113B2, “Sulfamoyl-arylamides and the use thereof as medicaments for the treatment of hepatitis B” (Janssen Sciences Ireland UC, priority 2013, dated 2021)
